We go through three compounds from patent publication US12653817B2, “Pharmaceutical composition comprising protein kinase inhibitor and chemotherapeutic drug and use thereof” (SHENZHEN CHIPSCREEN BIOSCIENCES CO., LTD., priority 2020, dated 2026).

Data set [1] deals with relapsed and refractory ovarian cancer. Description: Phase Ib single-arm clinical trial of chiauranib capsules, efficacy. Type of data set: in vivo, human. The text has this: A single-arm, multi-center, non-randomized, open-label phase Ib trial.
Main inclusion criteria: Patients with histologically diagnosed epithelial ovarian cancer, fallopian tube cancer or primary peritoneal carcinoma; patients who had received platinum-based chemotherapy regimens, and platinum-resistant patients who achieved progressive or relapsed disease after had received ≥2 different chemotherapy regimens; platinum-sensitive patients who achieved progressive or relapsed disease after had received ≥2 different chemotherapy regimens, or who refused to receive further chemotherapy.
(§1) Medication regimen: 50 mg of chiauranib was taken orally every morning on an empty stomach, once a day, every 28 days as a treatment cycle, and there was no drug withdrawal interval between the treatment cycles. The treatment was continued until any of the following conditions occurred (whichever occurred first): progressive disease, intolerable toxicity reaction, death, withdrawal of informed consent, or loss to follow-up.
Efficacy indicators: The efficacy indicators were evaluated by investigators and imaging experts according to RECIST1.1 criteria.
Main: Objective response rate (ORR).
Secondary: Progression-free survival (PFS), time to progression (TTP), 16-week disease control rate (16W-DCR), duration of response (DOR) of disease, overall survival (OS).
Twenty-five patients with relapsed and refractory ovarian cancer were enrolled in the study, and the number of previous treatment regimens they had received was ≥3. 3 cases (12.0%) were sensitive to the last platinum-containing chemotherapy, and 22 cases (88.0%) were refractory or resistant to the last platinum-containing chemotherapy. As of the cut-off date for trial data (Mar. 20, 2019), 16 patients (64.0%) discontinued the treatment due to progressive disease, 3 patients (12.0%) discontinued the treatment due to adverse events, and other reasons for the discontinuation of the treatment comprised voluntary withdrawal of subjects, end of trial and loss to follow-up.
The full analysis set (FAS) and safety data set (SS) were used for analysis, and 25 subjects were included in each data set.

A short description of data set [2]: Phase Ib single-arm clinical trial of chiauranib capsules, safety evaluation. Type of data set: in vivo. The procedure: as §1
The safety indicators comprised adverse events, vital signs, ECG and abnormal laboratory results, which were evaluated according to CTCAE V4.03. Twenty-five patients with relapsed and refractory ovarian cancer were enrolled in the study and included in the safety data set (SS) for analysis.

Data set [3] has as its system platinum-refractory/resistant relapsed advanced ovarian cancer. The following applies: historical data; cited from earlier work.
[4] abbreviates: 25 patients, cut-off Mar. 20, 2019.
[5] abbreviates: chiauranib 50 mg orally once a day, N = 25, cut-off Mar. 20, 2019.
Setting [6] is: increase in serum creatine phosphokinase MB, 25 subjects.

“Also recorded” adds a separate entry of the source.

Take `COc1ccc2c(Oc3ccc4c(C(=O)Nc5ccccc5N)cccc4c3)ccnc2c1` [chiauranib, N-(2-aminophenyl)-6-(7-methoxyquinoline-4-oxy)-1-naphthamide]: in data set [1] (setting [4]), the “Discontinued the treatment due to progressive disease, %” value is reported as 64.0% and the “Discontinued the treatment due to progressive disease, patients” value is given as 16 patients. Moreover, in data set [1] (N = 25, cut-off Mar. 20, 2019), the “Duration of response, Event” value worked out at 0; the “Overall survival, Event” value turned out to be 11; the “Progression-free survival, Event (progressive disease or death)” value came to 12; the “Time to progression, Event” value was found to be 11. In data set [1] (chiauranib 50 mg orally once a day, N = 25), the “16-week disease control rate” value turned out to be 32.0%. This compound also showed an Objective response rate in data set [1] (chiauranib 50 mg orally once a day, N = 25, RECIST1.1) of 4.0%. For the same compound, in data set [1] (setting [5]), the “Progression-free survival, median” value is on record as 3.7 month and the “Time to progression, median” value is on record as 3.7 month. Further, the “Efficacy conclusion, single-agent” value in data set [1] (subjects with platinum-refractory/resistant relapsed ovarian cancer who had received multiple chemotherapies) is given as “shown preliminary efficacy in tumor response; also recorded: showed primary efficacy of tumor response”. In addition, in data set [2] (25 subjects), the “Abdominal pain, %” value is 52.0%; the “Abdominal pain, cases” value amounted to 13 cases; the “Adverse event leading to the discontinuation of the treatment, %” value is listed as 12.0%; the “Adverse event leading to the discontinuation of the treatment, patients” value is given as 3 patients. In data set [2] (25 subjects), the “Adverse event leading to the suspension of chiauranib, %” value came to 40.7%; the “Adverse event leading to the suspension of chiauranib, patients” value was determined as 11 patients; the “At least one common adverse event, %” value is 100%; the “At least one common adverse event, subjects” value was found to be 25 subjects. Further, in data set [2] (25 subjects), the “Diarrhea, %” value turned out to be 72.0%; the “Diarrhea, cases” value is reported as 18 cases; the “Discontinuation due to bile duct obstruction” value is on record as “dysfunction syndrome, 1 case of bile duct”; the “Discontinuation due to electrolyte disturbance” value is “obstruction, and 1 case of electrolyte”. Also, in data set [2] (25 subjects), the “Fatigue, %” value amounted to 64.0%; the “Fatigue, cases” value came out at 16 cases; the “Hypertension, %” value amounted to 44.0%; the “Hypertension, cases” value was determined as 11 cases. Moreover, in data set [2] (25 subjects), the “Loss of appetite, %” value is given as 64.0%; the “Loss of appetite, cases” value came out at 16 cases; the “Proteinuria, %” value is listed as 60.0%; the “Proteinuria, cases” value is on record as 15 cases. Also, in data set [2] (25 subjects), the “Related serious adverse event: hypokalemia” value is “electrolyte disturbance, 1 case of hypokalemia,”; the “Serious adverse events judged to be related to chiauranib (definitely related, possibly related, undetermined), cases” value was determined as 5 cases; the “Suspension due to decreased appetite” value was “ventricular dysfunction, 1 case of infection, 1”; the “Suspension due to increased alanine aminotransferase” value is 1 case. In data set [2] (25 subjects), the “Suspension due to infection” value is on record as “ventricular dysfunction, 1 case of infection, 1”; the “Suspension due to proteinuria” value amounted to 2 cases; the “Weight loss, %” value is recorded as 56.0%; the “Weight loss, cases” value is on record as 14 cases. In data set [2] (25 subjects, CTCAE V4.03), the “Serious adverse events, % of patients” value is on record as 32.0%; the “Serious adverse events, cases” value came out at 9 cases; the “Serious adverse events, patients” value came out at 8 patients. Further, in data set [2] (setting [6]), the “Adverse event leading to the reduction of the dosage of chiauranib, %” value is 4.0% and the “Adverse event leading to the reduction of the dosage of chiauranib, patients” value is listed as “One”. The “Adverse event leading to death, %” value in data set [2] (multiple organ dysfunction syndrome, 25 subjects) is recorded as 4.0%. The “Adverse event leading to death, patients” value in data set [2] (multiple organ dysfunction syndrome, relation to chiauranib undetermined, 25 subjects) is “One”. Also, the “Tolerability of single-agent therapy” value in data set [2] (toxicity characteristics similar to VEGFR target drugs) was “can be tolerated by most subjects”.

In the case of `CC(=O)O[C@H]1C(=O)[C@@]2(C)[C@H]([C@H](OC(=O)c3ccccc3)[C@]3(O)C[C@H](OC(=O)[C@H](O)[C@@H](NC(=O)c4ccccc4)c4ccccc4)C(C)=C1C3(C)C)[C@]1(OC(C)=O)CO[C@@H]1C[C@@H]2O` [paclitaxel], in data set [3], the “Response rate of single-agent” value is reported as “about 21%”.

With `COc1cc([C@@H]2c3cc4c(cc3[C@@H](O[C@@H]3O[C@@H]5CO[C@@H](C)O[C@H]5[C@H](O)[C@H]3O)[C@H]3COC(=O)[C@H]23)OCO4)cc(OC)c1O` [etoposide], the “Response rate of single-agent” value in data set [3] is given as “about 27%”.
